Data on 8 compounds can be found in US5578601A, “Nonpeptide bradykinin antagonists” (Sterling Winthrop Inc., priority 1995, dated 1996).

Counter-ions that a name gives are not always drawn. Like-named read-outs stand apart in the source and are kept apart here.

Broadly, the Ki is the dissociation constant of the complex between target and ligand, obtained from inhibition or displacement.

The target of one assay is T1, bradykinin B2 receptor (Homo sapiens, UniProt P30411).
T1 construct: These cells contain the bradykinin B2 receptor as previously described; endogenous in cells; host or cells: human IMR-90 fetal lung fibroblasts
T1 sequence (P30411 1-391): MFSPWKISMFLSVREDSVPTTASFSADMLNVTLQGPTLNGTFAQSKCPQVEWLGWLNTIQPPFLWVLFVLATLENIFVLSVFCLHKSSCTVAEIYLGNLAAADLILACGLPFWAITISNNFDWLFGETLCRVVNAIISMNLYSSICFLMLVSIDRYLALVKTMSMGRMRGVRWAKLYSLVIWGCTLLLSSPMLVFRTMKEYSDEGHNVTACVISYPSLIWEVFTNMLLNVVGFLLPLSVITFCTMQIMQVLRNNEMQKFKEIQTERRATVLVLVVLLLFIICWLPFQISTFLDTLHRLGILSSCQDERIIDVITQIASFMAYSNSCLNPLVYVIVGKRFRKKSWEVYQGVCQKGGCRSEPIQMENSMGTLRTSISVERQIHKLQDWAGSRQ
As to the kind of experiment: [3H]-bradykinin radioligand competitive binding to human IMR-90 fetal lung fibroblasts (bradykinin B2 receptor). Particulars: human IMR-90 cells, 2 h, 4° C, pH 7.4, mean values from 2-3 experiments. The method, then:
The receptor binding affinity (KI) of the compounds of the present invention was determined in [^3 H]-bradykinin radioligand binding studies using human IMR-90 fetal lung fibroblasts. […] Briefly stated, harvested IMR-90 cells were resuspended to the desired cell concentration in ice cold buffer containing phosphate buffered saline (PBS) pH-7.4, sodium azide (0.02%), 0.1% BSA, PMSF (1 mM), DTT (1 mM), and captopril (1 mM). For competitive inhibition binding studies, cells were incubated with bradykinin (1-2 nM) in the absence or presence of increasing concentrations of competing compound. All assay mixtures were incubated for 2 hours at 4° C. The binding assays were terminated by filtration through Whatman GF/B filters on a Brandel Cell Harvester and the filters were washed with 3×1 ml aliquots of ice cold PBS containing 0.1% BSA. All filters were presoaked in 0.1% polyethylenimine to decrease nonspecific filter binding.

In the next assay the test system is nociception/hyperalgesia. Particulars: several different animal models of nociception/hyperalgesia; cited from earlier work.
For the next assay, the system named is rhinovirus infection. Particulars: intranasal, experimentally induced infection; cited from earlier work.
The subject of assay [1] is inflammation and hyperalgesia. Particulars: intraplantar carrageenan; cited from earlier work.

Take `CCCC[P+](CCCC)(CCCC)Cc1ccc(NC(=O)C(Cc2ccc(C(=O)c3ccccc3)cc2)NC(=NC2CCCCC2)NC2CCCCC2)cc1` (stereo not shown) [Example 3, Phosphonium, [[4-[[3-(4-benzoylphenyl)-2-[[bis(cyclohexylamino)methylene]amino]-1-oxopropyl]amino]phenyl]methyl]tributyl-, chloride, monohydrochloride]: at bradykinin B2 receptor (read-out: IMR 90 Ki), the inhibitory constant (Ki) worked out at 5.8 µM. As for `CCCC[P+](CCCC)(CCCC)Cc1ccc(NC(=O)C(Cc2ccc3ccccc3c2)N=C(NCCC)NCCCc2ccccc2)cc1` (stereo not shown) [Example 10, Phosphonium, tributyl[[4-[[3-(2-naphthalenyl)-1-oxo-2-[[[(3-phenylpropyl)amino](propylamino)methylene]amino]propyl]amino]phenyl]methyl]-, chloride, monohydrochloride], the Ki at bradykinin B2 receptor (read-out: IMR 90 Ki) worked out at 1.95 µM. On to `CCCC[P+](CCCC)(CCCC)Cc1ccc(NC(=O)C(Cc2csc3ccccc23)N=C(NC2CCCCC2)NC2CCCCC2)cc1` (stereo not shown) [Example 13, Phosphonium, [[4-[[3-benzo[b]thien-3-yl-2-[[bis(cyclohexylamino)methylene]amino]-1-oxopropyl]amino]phenyl]methyl]tributyl-, chloride, monohydrochloride], for which the inhibitory constant (Ki) at bradykinin B2 receptor (read-out: IMR 90 Ki) amounted to 0.43 µM. Still for that read-out and setting: with `CCCC[P+](CCCC)(CCCC)Cc1cccc(NC(=O)C(Cc2ccc3ccccc3c2)N=C(NC2CCCCC2)NC2CCCCC2)c1` (stereo not shown) [Example 17, Phosphonium, [[3-[[2-[[bis(cyclohexylamino)methylene]amino]-3-(2-naphthalenyl)-1-oxopropyl]amino]phenyl]methyl]tributyl-, chloride, monohydrochloride] the figure was 3 µM. At bradykinin B2 receptor (IMR 90 Ki), `O=C(NC1CN2CCC1CC2)C(Cc1ccc(Cl)cc1)NC(=NC1CCCCC1)NC1CCCCC1` (stereo not drawn) [Example 22, 4-chlorophenylpropanamide, N-1-azabicyclo[2.2.2]oct-3-yl-α-[[bis(cyclohexylamino)methylene]amino]-, dihydrochloride] came in with a Ki of 2.9 µM.

Turning to `O=C(Nc1cccc2cnccc12)C(Cc1ccc2ccccc2c1)N=C(NC1CCCCC1)NC1CCCCC1` (stereo not drawn) [Example 24, 2-Naphthalenepropanamide, α-[[bis(cyclohexylamino)methylene]amino]-N-5-isoquinolinyl-, monohydrochloride], at bradykinin B2 receptor (read-out: IMR 90 Ki), the Ki amounted to 2.54 µM. On the same count and under the same terms, with `O=C(NCc1nc2ccccc2[nH]1)C(Cc1ccc2ccccc2c1)N=C(NC1CCCCC1)NC1CCCCC1` (stereo not drawn) [Example 25, 2-Naphthalenepropanamide, N-(1H-benzimidazol-2-ylmethyl)-α-[[bis(cyclohexylamino)methylene]amino]-, monohydrochloride] the figure was 5.3 µM. On to NPC-567, for which, in the assay with nociception/hyperalgesia, the antinociceptive activity entry was “antinociceptive”. Besides, the “beneficial effects on the course of rhinovirus infection” value with rhinovirus infection is “failed to demonstrate beneficial effects”. Besides, the “antagonism of inflammation and hyperalgesia” value in assay [1] is listed as “antagonized”.
